Assay: Phase Ib dose escalation: safety and tolerability (CTCAE v4.03), MTD
Assay type: in vivo, human
Parameters: key to Hypercalcemia, CTCAE-Grade / Hypophosphatemia, CTCAE-Grade / Cholestasis, CTCAE-Grade / Nausea, CTCAE-Grade / Hypertension, CTCAE-Grade / Upper respiratory tract infection, CTCAE-Grade / Hyponatremia, CTCAE-Grade / Hypomagnesemia, CTCAE-Grade / Ascites & death due to rapid progression of malignancy, CTCAE-Grade / Hypokalemia, CTCAE-Grade / Pyrexia, CTCAE-Grade / Hyperphosphatemia, CTCAE-Grade / AV Block 1°, CTCAE-Grade / Palpations, CTCAE-Grade: 1 is the mildest form of the specific symptom; 5 is death
Conditions: for Hypercalcemia, CTCAE-Grade: relationship to IMP: Definitively
Text: This first-in-patient investigator-initiated phase Ib dose-escalation study followed a 3 + 3 dose-escalation scheme with a planned maximal inclusion of 48 participants allocated to eight cohorts of increasing doses. Outcomes were safety, tolerability, pharmacokinetics, and preliminary efficacy of ITPP with participants in this exploratory, prospective, open-label and unblinded, unrandomized, single-center investigation being enrolled at the University Hospital Zurich (USZ), Switzerland. Written informed consent was obtained of all participants before study inclusion after a time of consideration of at least 24 h. Written consent included the reporting and publication of individual, anonymized patient data. The study adhered to the principles of the Declaration of Helsinki, current good clinical practice guidelines and all ethical regulations. The study protocol was approved by the responsible independent ethics committee of Zurich (KEK-ZH-Nr. 2014-0374) and the national regulatory authority Swissmedic (2015DR1009) and is provided in the Supplementary Note 1. The study setup was published before inclusion start[55] and the trial first registered at ClinicalTrials.gov (NCT02528526) on 11/11/2014. After 6 sequential reviews requiring minor editorial changes, final registration at ClinicalTrials.gov was obtained on the 08/18/2015. The first patient was included in the study 04/13/2015, with treatment started on the 04/27/2015. 4 patients were included in the trial before final registration at ClinicalTrials.gov (04/13/2015–07/20/2015). The last patient was included on the 06/12/2018, treatment started on the 06/18/2018 and the last treatment administered on 07/06/2018. Data cut-off for the study was the 12/31/2018. The manuscript was written in compliance with ICMJE guidelines.
Primary objectives were (i) assessment of the safety and tolerability of increasing doses of ITPP, and (ii) establishment of the MTD (primary endpoint) according to the dose escalation schema. The primary outcome was measured by collection of adverse effects information according to Common Terminology Criteria for Adverse Events (CTCAE, US National Cancer Institute, version 4.03). Safety objectives and outcomes were identical with the primary endpoint.
The study drug (brand name: OXY111A) was intravenously administered in 9 infusions, each lasting 8 h, over 3 weeks in an outpatient setting at the Phase 1 unit of the USZ Clinical Trials Center. Due to its anionic properties, ITPP acts a potent chelator of calcium. Therefore, administration with CaCl2 (Baxter) at a 1:0.75 molar ratio has been determined to prevent hypocalcaemia. Respective doses were calculated based on body surface area (DuBois/DuBois formula). Cohort 1 started at weekly doses of 5600 mg/m^2 weekly, equal to the maximal weekly dose tested in healthy volunteers (unpublished data from Normoxys®). Dose escalation was performed according to the predefined scheme (Fig. 1a, Supplementary Note 1: page 6) up to a maximum weekly dose of 43,700 mg/m^2. During infusion days, participants had continuous monitoring of vital signs and daily 12-electrode electrocardiograms. Electrolytes measurements and venous blood gas analyses were performed three-hourly, while complete blood count, coagulation and routine kidney/liver parameters were assessed twice daily.
Severity of encountered AE was assessed following the CTCAE guidelines. Serious AE were defined as events being life-threatening, necessitating hospitalization, resulting in death or birth defects. DLT was defined as any AE ≥ grade 3 and sTET as any grade 2 AE considered to be definitely, probably or possibly related to ITPP. […] MTD was defined as the dose preceding the level at which 1 patient experienced a DLT or ≥3 patients experienced a sTET (Supplementary Note 1: page 6). The window for DLT/sTET/MTD assessment was from first dose of ITPP until first dose of chemotherapy or 10d following the last ITPP infusion. […]

[1] = cohort 4, AE, relationship to IMP: Possibly
[2] = cohort 4, AE, relationship to IMP: Unrelated
[3] = cohort 4, SAE, relationship to IMP: Unrelated
[4] = cohort 5, AE, relationship to IMP: Unlikely
[5] = cohort 7, AE, relationship to IMP: Unlikely
[6] = cohort 7, AE, relationship to IMP: Unrelated
[7] = cohort 8, AE, relationship to IMP: Possibly

SMILES: O=P1(O)OC2C3OP(=O)(O)OP(=O)(O)OC3C3OP(=O)(O)OP(=O)(O)OC3C2OP(=O)(O)O1 (stereo not drawn) [ITPP, Myo-inositol trispyrophosphate]
- Icterus due to malignant obstruction (AE, not ITPP-related) (cohort 4, 7000 mg/m^2): 0
- Lower gastrointestinal bleeding (AE, not ITPP-related) (cohort 4, 7000 mg/m^2): 0
- Nausea & vomiting due to malignant infiltration of stomach (AE, not ITPP-related) (cohort 4, 7000 mg/m^2): 0
- Neutropenia (AE, not ITPP-related) (cohort 4, 7000 mg/m^2): 0
- Palpitations (AE, not ITPP-related) (cohort 4, 7000 mg/m^2): 0
- Pyrexia (AE, not ITPP-related) (cohort 4, 7000 mg/m^2): 0
- Hypercalcemia, CTCAE-Grade (cohort 4, AE): 1
- Hypertension, CTCAE-Grade [1]: 1
- Hypophosphatemia, CTCAE-Grade [1]: 1
- Ascites, CTCAE-Grade [2]: 3
- Nausea, CTCAE-Grade [2]: 1
- Upper respiratory tract infection, CTCAE-Grade [2]: 1
- Acute kidney injury grad 3, CTCAE-Grade [3]: 3
- Hospitalisation due to fatigue/decreased state of health, CTCAE-Grade [3]: 3
- AV Block 1° (AE, not ITPP-related) (cohort 5, 8750 mg/m^2): 0
- Acute kidney injury grade 3 (AE, not ITPP-related) (cohort 5, 8750 mg/m^2): 0
- Ascites due to oncological progress (AE, not ITPP-related) (cohort 5, 8750 mg/m^2): 0
- C. difficile enteritis (AE, not ITPP-related) (cohort 5, 8750 mg/m^2): 0
- Cholestasis (AE, not ITPP-related) (cohort 5, 8750 mg/m^2): 0
- Fatigue (AE, not ITPP-related) (cohort 5, 8750 mg/m^2): 0
- Hyperphosphatemia (TET) (cohort 5, 8750 mg/m^2): 0
- Hypertension (TET) (cohort 5, 8750 mg/m^2): 0
- Hypomagnesemia (TET) (cohort 5, 8750 mg/m^2): 0
- Hypophosphatemia (TET) (cohort 5, 8750 mg/m^2): 0
- Lower gastrointestinal bleeding (AE, not ITPP-related) (cohort 5, 8750 mg/m^2): 0
- Nausea & vomiting due to malignant infiltration of stomach (AE, not ITPP-related) (cohort 5, 8750 mg/m^2): 0
- Nausea (AE, not ITPP-related) (cohort 5, 8750 mg/m^2): 0
- Neutropenia (AE, not ITPP-related) (cohort 5, 8750 mg/m^2): 0
- Palpitations (AE, not ITPP-related) (cohort 5, 8750 mg/m^2): 0
- Pyrexia (AE, not ITPP-related) (cohort 5, 8750 mg/m^2): 0
- Upper respiratory tract infection (AE, not ITPP-related) (cohort 5, 8750 mg/m^2): 0
- Hypercalcemia, CTCAE-Grade (cohort 5, AE): 1
- Hypokalemia, CTCAE-Grade [4]: 2
- Hyponatremia, CTCAE-Grade [4]: 1
- Icterus/Stenosis D. choledochus, CTCAE-Grade [4]: 3
- AV Block 1° (AE, not ITPP-related) (cohort 6, 10,500 mg/m^2): 0
- Acute kidney injury grade 3 (AE, not ITPP-related) (cohort 6, 10,500 mg/m^2): 0
- Ascites due to oncological progress (AE, not ITPP-related) (cohort 6, 10,500 mg/m^2): 0
- C. difficile enteritis (AE, not ITPP-related) (cohort 6, 10,500 mg/m^2): 0
- Cholestasis (AE, not ITPP-related) (cohort 6, 10,500 mg/m^2): 0
- Fatigue (AE, not ITPP-related) (cohort 6, 10,500 mg/m^2): 0
- Hyperphosphatemia (TET) (cohort 6, 10,500 mg/m^2): 0
- Hypertension (TET) (cohort 6, 10,500 mg/m^2): 0
- Hypokalemia (AE, not ITPP-related) (cohort 6, 10,500 mg/m^2): 0
- Hyponatremia (AE, not ITPP-related) (cohort 6, 10,500 mg/m^2): 0
- Hypophosphatemia (TET) (cohort 6, 10,500 mg/m^2): 0
- Icterus due to malignant obstruction (AE, not ITPP-related) (cohort 6, 10,500 mg/m^2): 0
- Lower gastrointestinal bleeding (AE, not ITPP-related) (cohort 6, 10,500 mg/m^2): 0
- Nausea & vomiting due to malignant infiltration of stomach (AE, not ITPP-related) (cohort 6, 10,500 mg/m^2): 0
- Nausea (AE, not ITPP-related) (cohort 6, 10,500 mg/m^2): 0
- Palpitations (AE, not ITPP-related) (cohort 6, 10,500 mg/m^2): 0
- Pyrexia (AE, not ITPP-related) (cohort 6, 10,500 mg/m^2): 0
- Upper respiratory tract infection (AE, not ITPP-related) (cohort 6, 10,500 mg/m^2): 0
- Hypercalcemia, CTCAE-Grade (cohort 6, AE): 1
- Hypomagnesemia, CTCAE-Grade (cohort 6, AE, relationship to IMP: Possibly): 1
- Neutropenia, CTCAE-Grade (cohort 6, AE, relationship to IMP: Unlikely): 3
- AV Block 1° (AE, not ITPP-related) (cohort 7, 12,390 mg/m^2): 0
- Acute kidney injury grade 3 (AE, not ITPP-related) (cohort 7, 12,390 mg/m^2): 0
- C. difficile enteritis (AE, not ITPP-related) (cohort 7, 12,390 mg/m^2): 0
- Cholestasis (AE, not ITPP-related) (cohort 7, 12,390 mg/m^2): 0
- Fatigue (AE, not ITPP-related) (cohort 7, 12,390 mg/m^2): 0
- Hyperphosphatemia (TET) (cohort 7, 12,390 mg/m^2): 0
- Hypertension (TET) (cohort 7, 12,390 mg/m^2): 0
- Hypomagnesemia (TET) (cohort 7, 12,390 mg/m^2): 0
- Hypophosphatemia (TET) (cohort 7, 12,390 mg/m^2): 0
- Icterus due to malignant obstruction (AE, not ITPP-related) (cohort 7, 12,390 mg/m^2): 0
- Lower gastrointestinal bleeding (AE, not ITPP-related) (cohort 7, 12,390 mg/m^2): 0
- Nausea & vomiting due to malignant infiltration of stomach (AE, not ITPP-related) (cohort 7, 12,390 mg/m^2): 0
- Nausea (AE, not ITPP-related) (cohort 7, 12,390 mg/m^2): 0
- Neutropenia (AE, not ITPP-related) (cohort 7, 12,390 mg/m^2): 0
- Palpitations (AE, not ITPP-related) (cohort 7, 12,390 mg/m^2): 0
- Hypercalcemia, CTCAE-Grade (cohort 7, AE): 1
- Hypokalemia, CTCAE-Grade [5]: 1
- Upper respiratory tract infection, CTCAE-Grade [5]: 2
- Ascites, CTCAE-Grade [6]: 3
- Pyrexia, CTCAE-Grade [6]: 1
- Acute kidney injury grade 3 (AE, not ITPP-related) (cohort 8, 14,500 mg/m^2): 0
- Ascites due to oncological progress (AE, not ITPP-related) (cohort 8, 14,500 mg/m^2): 0
- C. difficile enteritis (AE, not ITPP-related) (cohort 8, 14,500 mg/m^2): 0
- Cholestasis (AE, not ITPP-related) (cohort 8, 14,500 mg/m^2): 0
- Fatigue (AE, not ITPP-related) (cohort 8, 14,500 mg/m^2): 0
- Hypokalemia (AE, not ITPP-related) (cohort 8, 14,500 mg/m^2): 0
- Hyponatremia (AE, not ITPP-related) (cohort 8, 14,500 mg/m^2): 0
- Hypophosphatemia (TET) (cohort 8, 14,500 mg/m^2): 0
- Icterus due to malignant obstruction (AE, not ITPP-related) (cohort 8, 14,500 mg/m^2): 0
- Lower gastrointestinal bleeding (AE, not ITPP-related) (cohort 8, 14,500 mg/m^2): 0
- Nausea & vomiting due to malignant infiltration of stomach (AE, not ITPP-related) (cohort 8, 14,500 mg/m^2): 0
- Nausea (AE, not ITPP-related) (cohort 8, 14,500 mg/m^2): 0
- Neutropenia (AE, not ITPP-related) (cohort 8, 14,500 mg/m^2): 0
- Palpitations (AE, not ITPP-related) (cohort 8, 14,500 mg/m^2): 0
- Pyrexia (AE, not ITPP-related) (cohort 8, 14,500 mg/m^2): 0
- Upper respiratory tract infection (AE, not ITPP-related) (cohort 8, 14,500 mg/m^2): 0
- Hyperphosphatemia, CTCAE-Grade [7]: 1
- Hypomagnesemia, CTCAE-Grade [7]: 1
- Hypertension, CTCAE-Grade (cohort 8, AE, relationship to IMP: Probably): 1
- AV Block 1°, CTCAE-Grade (cohort 8, AE, relationship to IMP: Unrelated): 1
- sTET or DLT (cohorts 1–7): No significant treatment-emergent toxicity (sTET) or dose limiting toxicity (DLT) was encountered
- Total number of adverse events (AE) (during ITPP administration and 10-day follow-up): 56
- Increase in diastolic blood pressure (grade I, three older male patients with pre-existing hypertension): < 20 mmHg
- Hypercalcemia of free ionized calcium, CTCAE grade (first sTET) (patient Nr. 27, cohort 8, single dose 14’500 mg/m^2): grade II
- Hypercalcemia of free ionized calcium, CTCAE grade (second sTET and DLT) (patient Nr. 28, cohort 8, single dose 14’500 mg/m^2): grade II and IV
- Maximum tolerated dose (MTD) (single dose, intravenous over eight hours, nine infusions over three weeks): 12,390 mg/m^2

Source: paper PMC8217170, “Phase Ib dose-escalation study of the hypoxia-modifier Myo-inositol trispyrophosphate in patients with hepatopancreatobiliary tumors” (Nature Communications, 2021)
